The values below come from US7381705B2, “Inhibitors of hepatitis C virus” (The Administrators Of The Tulane Educational Fund, priority 2004, dated 2008).

The subject of the assay is HCV pseudotype (HIV core proteins, HCV E1 and E2 of strain H77). The note with it: for Percent inhibition: 25 μM.
Where [1] appears, read: HCV J4 1b E2 peptides at ~25 μM, Table 8, controls as in Table 7.
Setting [2] is: HCV H77 1a E2 peptides at ~25 μM, Table 7, virus alone 448,123.

Read-outs that look alike come from different tables or passages of the source. Ends that are not written are not given here.

Regarding KCGSGPWLTPRCLVDYPY [compound 106], the Percent inhibition came out at 60.4%. Also, the Luciferase units under setting [1] is listed as 193,533 luciferase units (lumens).
“KWEYVVLLFLLLADARVC [compound 47, KWEYVVLLFLLLADARVC]”: the Percent inhibition was 56.4%. Under setting [2], the Luciferase units is reported as 195,320 luciferase units (lumens).
For “LASCRRLTDFAQGWGPIS [compound 11, LASCRRLTDFAQGWGPIS]” the same measures were 19.6% and 360,410 luciferase units (lumens).
Take LFLLLADARVCACLWMML [compound 120]: the Percent inhibition was −3.4%. Also, the Luciferase units under setting [1] is given as 463,243 luciferase units (lumens).
For the sequence LFLLLADARVCSCLWMML [compound 48], the Percent inhibition is listed as 35.1%. For the same sequence, under setting [2], the Luciferase units is 290,786 luciferase units (lumens).
For “LLSTTEWQILPCAFTTLP [compound 115, LLSTTEWQILPCAFTTLP]”, the Percent inhibition is −6.2%. Further, under setting [1], the Luciferase units is 475,713 luciferase units (lumens).
Turning to “LLSTTQWQVLPCSFTTLP [compound 40, LLSTTQWQVLPCSFTTLP]”, the Percent inhibition amounted to 1.3%. The Luciferase units under setting [2] is on record as 442,346 luciferase units (lumens).
Turning to LTPRCLVDYPYRLWHYPC [compound 107], the Percent inhibition turned out to be 11.1%. Also, the Luciferase units under setting [1] is 402,976 luciferase units (lumens).
Turning to “MASCRPIDWFAQGWGPIT [compound 88, MASCRPIDWFAQGWGPIT]”, the Percent inhibition is 7.9%. Besides, under setting [1], the Luciferase units was 412,776 luciferase units (lumens).
“MYVGGVEHRLEAACNWTR [compound 35, MYVGGVEHRLEAACNWTR]”: the Percent inhibition is listed as 66.7%. Further, under setting [2], the Luciferase units was 153,553 luciferase units (lumens).
For the sequence “NCNESLNTGWLAGLFYQH [compound 8, NCNESLNTGWLAGLFYQH]”, the Percent inhibition was determined as 74.6%. The Luciferase units under setting [2] is 113,650 luciferase units (lumens).
For “NNTRPPLGNWFGCTWMNS [compound 22, NNTRPPLGNWFGCTWMNS]” the same measures were 45.2% and 245,900 luciferase units (lumens).
In the same order, the values of “NWTRGERCDLEDRDRSEL [compound 37, NWTRGERCDLEDRDRSEL]” are −30.7% and 585,553 luciferase units (lumens).
For PASQVCGPVYCFTPSPVV [compound 93], the Percent inhibition is on record as 9.7%. Moreover, the Luciferase units under setting [1] was 409,220 luciferase units (lumens).
For PNSSDQRPYCWHYAPRPC [compound 90] the same measures were 5.5% and 423,326 luciferase units (lumens).
Consider PTDCFRKHPEATYSRCGS [compound 28], for which the Percent inhibition is 11.9%. The Luciferase units under setting [2] was 394,780 luciferase units (lumens).
On to PTDCFRKHPEATYTKCGS [compound 104], for which the Percent inhibition is listed as 6.3%. Under setting [1], the Luciferase units is on record as 419,876 luciferase units (lumens).
Take “PVYCFTPSPVVVGTTDRS [compound 18, PVYCFTPSPVVVGTTDRS]”: the Percent inhibition is 2.9%. For the same sequence, the Luciferase units under setting [2] is on record as 435,026 luciferase units (lumens).
Turning to “PVYCFTPSPVVVGTTDRS [compound 94, PVYCFTPSPVVVGTTDRS]”, the Percent inhibition was 30.4%. Under setting [1], the Luciferase units is 311,736 luciferase units (lumens).
For PYCWHYAPRPCGVVPASQ [compound 91] the same measures were 69.1% and 160,883 luciferase units (lumens).
Take “QILPCAFTTLPALSTGLI [compound 116, QILPCAFTTLPALSTGLI]”: the Percent inhibition was 12.1%. In addition, under setting [1], the Luciferase units is listed as 394,096 luciferase units (lumens).
